The values below come from patent US12673947B2 (Cytosinlab Therapeutics Co., Ltd., priority 2020, dated 2026).

In assay [1] the target is T1, FLT3 (Homo sapiens, UniProt P36888).
T1 construct: purchased Carna 08-145
T1 sequence (P36888 27-993): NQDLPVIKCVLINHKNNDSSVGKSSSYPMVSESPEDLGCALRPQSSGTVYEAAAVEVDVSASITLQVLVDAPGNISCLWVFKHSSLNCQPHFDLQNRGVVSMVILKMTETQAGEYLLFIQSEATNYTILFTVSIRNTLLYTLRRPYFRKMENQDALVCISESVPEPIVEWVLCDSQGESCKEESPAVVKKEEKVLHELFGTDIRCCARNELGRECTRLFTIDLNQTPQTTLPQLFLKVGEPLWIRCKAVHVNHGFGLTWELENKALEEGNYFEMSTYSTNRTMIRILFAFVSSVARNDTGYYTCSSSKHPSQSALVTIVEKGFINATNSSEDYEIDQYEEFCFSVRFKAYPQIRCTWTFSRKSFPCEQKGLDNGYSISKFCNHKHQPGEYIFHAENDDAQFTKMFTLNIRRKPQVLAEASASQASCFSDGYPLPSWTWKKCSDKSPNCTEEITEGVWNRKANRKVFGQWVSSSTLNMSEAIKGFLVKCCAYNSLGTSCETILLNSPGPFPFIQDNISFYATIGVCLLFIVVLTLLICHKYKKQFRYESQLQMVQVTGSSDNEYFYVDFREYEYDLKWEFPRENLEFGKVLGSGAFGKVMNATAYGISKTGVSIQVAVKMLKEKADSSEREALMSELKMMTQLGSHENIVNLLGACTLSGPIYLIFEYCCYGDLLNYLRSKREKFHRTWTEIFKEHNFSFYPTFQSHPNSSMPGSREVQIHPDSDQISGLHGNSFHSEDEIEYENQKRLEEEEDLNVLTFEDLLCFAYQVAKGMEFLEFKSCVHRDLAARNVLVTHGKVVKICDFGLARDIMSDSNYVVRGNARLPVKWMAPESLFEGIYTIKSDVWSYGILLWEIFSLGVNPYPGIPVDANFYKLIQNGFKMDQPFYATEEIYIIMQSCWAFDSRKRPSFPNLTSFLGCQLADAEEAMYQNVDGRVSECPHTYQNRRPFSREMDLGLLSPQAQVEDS
Description: FLT3 kinase in vitro inhibitory activity experiment (Caliper mobility shift, conversion rate). The following applies: IC50 class, read-out: Enzyme activity FLT3. Format: biochemical. The gist of the method: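 FLT3 was pre-incubated with compound for 10 min at room temperature, then the reaction was started with ATP plus Kinase substrate 2 and run 30 min at room temperature before stop solution. Substrate conversion was read by Caliper mobility shift.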

The test system of assay [2] is MV4;11 cells. Description: MV4;11 in vitro inhibition of proliferation assay (CellTiter-Glo, 72 hours). Format: cell-based. Conditions: Homo sapiens, MV4-11, 72 h, IC50 class, read-out: Inhibitory activity of cell proliferation MV4;11. In short, it runs like this:
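MV4;11 cells in IMDM/10% FBS, 2000 per well, were exposed to 9-point 3-fold DMSO dilutions from 10 uM (final DMSO 0.3%) in triplicate for 72 hours at 37° C., 5% CO2. Viability was read by CellTiter-Glo luminescence, and IC50 came from a four-parameter fit of inhibition.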
On the technique in general: Cellular ATP, detected with luciferase, serves as a proxy for viable cell number.

Molecules are shown by their SMILES.

Consider `CCc1nc2c(N)ncc(-c3ccc(N4CC5CCC(C4)N5C)c(OC)c3)c2nc1N[C@@H]1CC[C@H](O)C1` [Compound 286, (1S, 3R)-3-((5-amino-3-ethyl-8-(3-methoxy-4-(8-methyl-3,8-diazabicyclo[3.2.1]octyl-3-yl)phenyl)pyridino[3,4-b]pyrazine-2-yl)amino)cyclopentan-1-ol], for which the IC50 in assay [1] and in assay [2] was not above 0.01 µM in each case.

For the compound `CCc1nc2c(N)ncc(-c3ccc(N4CCC(N5CCN(C)CC5)C(C)C4)c(OC)c3)c2nc1NC1CCOCC1` (stereo not shown) [Compound 287, 3-ethyl-8-(3-methoxy-4-(3-methyl-4-(4-methylpiperazine-1-yl)piperidine-1-yl)phenyl)-N2-(tetrahydro-2H-pyran-4-yl)pyridino[3,4-b]pyrazine-2,5-diamine], the IC50 in assay [1] is not above 0.01 µM; in assay [2], 0.01 to 0.1 µM.

Turning to `CCc1nc2c(N)ncc(-c3ccc(-c4ccnc(C)n4)c(OC)c3)c2nc1N[C@@H]1CC[C@H](O)C1` [Compound 288, (1S,3R)-3-((5-amino-3-ethyl-8-(3-methoxy-4-(2-methylpyrimidine-4-yl)phenyl)pyrido[3,4-b]pyrazine-2-yl)amino)cyclopentan-1-ol], the figures for the IC50 in assay [1] and in assay [2] were not above 0.01 µM and 0.01 to 0.1 µM, respectively.

As for `CCc1nc2c(N)ncc(-c3cnn(-c4ccc(C5CCN(C)CC5)cc4)c3)c2nc1N[C@@H]1CC[C@H](O)C1` [Compound 290], the IC50 in assay [1] and in assay [2] was not above 0.01 µM throughout.

On to `CCc1nc2c(N)ncc(-c3cnn(-c4ccc(Cl)cc4)c3)c2nc1N[C@@H]1CC[C@H](O)C1` [Compound 291], for which the values for the IC50 in assay [1] and in assay [2] were not above 0.01 µM and 0.01 to 0.1 µM, respectively.

For the compound `CCc1nc2c(N)ncc(-c3cnn(-c4ccc(OC5CCN(C)CC5)cc4)c3)c2nc1N[C@@H]1CC[C@H](O)C1` [Compound 292, (1S, 3R)-3-((5-amino-3-ethyl-8-(1-(4-((1-methylpiperidin-4-yl)oxy)phenyl)-1H-pyrazol-4-yl)pyridino[3,4-b]pyrazin-2-yl)amino)cyclopentan-1-ol], the IC50 in assay [1] was more than 0.5 µM; in assay [2], 0.1 to 0.5 µM.

In the case of `CCc1nc2c(N)ncc(-c3ccc(N4CCC(N5CC6CCC(C5)N6C)CC4)c(OC)c3)c2nc1NC1CCOCC1` [Compound 293, 3-ethyl-8-(3-methoxy-4-(4-(8-methyl-3,8-diazabicyclo[3.2.1]octan-3-yl)piperidin-1-yl)phenyl)-N2-(tetrahydro-2H-pyran-4-yl)pyridino [3,4-b]pyrazin-2,5-diamine], the IC50 in assay [1] is not above 0.01 µM; in assay [2], 0.01 to 0.1 µM.

`CCc1nc2c(N)ncc(-c3cnn(-c4ncccn4)c3)c2nc1N[C@@H]1CC[C@H](O)C1` [Compound 294]: the IC50 in assay [1] and in assay [2] was not above 0.01 µM each time.

On to `CCc1nc2c(N)ncc(-c3cnn(-c4cncnc4)c3)c2nc1N[C@@H]1CC[C@H](O)C1` [Compound 295], for which the IC50 in assay [1] and in assay [2] was not above 0.01 µM in each case.

`CCc1nc2c(N)ncc(-c3cnn(-c4ccn(C)c(=O)c4)c3)c2nc1N[C@@H]1CC[C@H](O)C1` [Compound 296]: the IC50 in assay [1] and in assay [2] was not above 0.01 µM throughout.

Take `CCc1nc2c(N)ncc(-c3cnn(-c4cc(C)n(C)c(=O)c4)c3)c2nc1N[C@@H]1CC[C@H](O)C1` [Compound 299]: the IC50 was not above 0.01 µM in assay [1] and 0.01 to 0.1 µM in assay [2].

In the case of `CCc1nc2c(N)ncc(-c3cnn(-c4ccc(=O)n(C)c4)c3)c2nc1N[C@@H]1CC[C@H](O)C1` [Compound 301], the IC50 in assay [1] and in assay [2] was not above 0.01 µM in each case.

Consider `CCc1nc2c(N)ncc(-c3cnn(-c4cccnc4)c3)c2nc1N[C@@H]1CC[C@H](O)C1` [Compound 302], for which the IC50 in assay [1] and in assay [2] was not above 0.01 µM in each case.

For `CCc1nc2c(N)ncc(-c3cnn(-c4ccc(C)cc4)c3)c2nc1N[C@@H]1CC[C@H](O)C1` [Compound 303], the IC50 was not above 0.01 µM in assay [1] and 0.01 to 0.1 µM in assay [2].

In the case of `CCc1nc2c(N)ncc(-c3cnn(-c4cc(C)ncn4)c3)c2nc1N[C@@H]1CC[C@H](O)C1` [Compound 304], the IC50 in assay [1] and in assay [2] was not above 0.01 µM throughout.

Take `CCc1nc2c(N)ncc(-c3cnn(-c4ccnnc4)c3)c2nc1N[C@@H]1CC[C@H](O)C1` [Compound 306]: the IC50 in assay [1] and in assay [2] was not above 0.01 µM each time.

For the compound `CCc1nc2c(N)ncc(-c3cnn(-c4ccnc(C(C)(C)O)c4)c3)c2nc1N[C@@H]1CC[C@H](O)C1` [Compound 308], the IC50 in assay [1] and in assay [2] was not above 0.01 µM throughout.

On to `CCc1nc2c(N)ncc(-c3cnn(-c4ccnc(OC)c4)c3)c2nc1N[C@@H]1CC[C@H](O)C1` [Compound 309], for which the IC50 in assay [1] and in assay [2] was not above 0.01 µM each time.

As for `CCc1nc2c(N)ncc(-c3cnn(-c4ccnc(N5CCCC5)c4)c3)c2nc1N[C@@H]1CC[C@H](O)C1` [Compound 310], the values for the IC50 in assay [1] and in assay [2] were not above 0.01 µM and 0.01 to 0.1 µM, respectively.

In the case of `CCc1nc2c(N)ncc(-c3cnn(-c4ccc(CNC)cc4)c3)c2nc1N[C@@H]1CC[C@H](O)C1` [Compound 311], the IC50 in assay [1] and in assay [2] was not above 0.01 µM each time.

`CCc1nc2c(N)ncc(-c3ccc(-c4cnn(C5CCN(C)CC5)c4)c(OC)c3)c2nc1N[C@@H]1CC[C@H](O)C1` [Compound 312, (1S, 3R)-3-((5-amino-3-ethyl-8-(3-methoxy-4-(1-(1-methylpiperidin-4-yl)-1H-pyrazol-4-yl)phenyl)pyridino [3,4-b]pyrazin-2-yl)amino) cyclopentan-1-ol]: the IC50 in assay [1] is not above 0.01 µM; in assay [2], 0.01 to 0.1 µM.

Regarding `CCc1nc2c(N)ncc(-c3ccc(-c4ccc(C5CCN(C)CC5)cc4)c(OC)c3)c2nc1N[C@@H]1CC[C@H](O)C1` [Compound 313], the IC50 in assay [1] is not above 0.01 µM; in assay [2], 0.01 to 0.1 µM.

`CCc1nc2c(N)ncc(-c3ccc(N4CCC(N5CCCN(C)CC5)CC4)c(OC)c3)c2nc1NC1CCOCC1` [Compound 314]: the IC50 in assay [1] and in assay [2] was 0.01 to 0.1 µM each time.

Consider `CCc1nc2c(N)ncc(-c3ccc(N4CCC(N5CCN(CC)CC5)CC4)c(OC)c3)c2nc1NC1CCOCC1` [Compound 315, 3-ethyl-8-(4-(4-(4-ethylpiperazine-1-yl)piperidine-1-yl)-3-methoxyphenyl)-N2-(tetrahydro-2H-pyran-4-yl)pyridino[3,4-b]pyrazine-2,5-diamine], for which the IC50 in assay [1] is not above 0.01 µM; in assay [2], 0.01 to 0.1 µM.

In the case of `CCc1nc2c(N)ncc(-c3cnn(-c4ccnc(CO)c4)c3)c2nc1N[C@@H]1CC[C@H](O)C1` [Compound 318], the IC50 in assay [1] and in assay [2] was not above 0.01 µM each time.

As for `CCc1nc2c(N)ncc(-c3ccc(N4CCC(N5CC6CCC(C5)N6)CC4)c(OC)c3)c2nc1NC1CCOCC1` [Compound 319, 8-(4-(4-(3,8-diazabicyclo[3.2.1]octane-3-yl)piperidin-1-yl)-3-methoxyphenyl)-3-ethyl-N2-(tetrahydro-2H-pyran-pyridin-4-yl)pyridino [3,4-b]pyrazine-2,5-diamine], the IC50 in assay [1] was not above 0.01 µM; in assay [2] it was 0.01 to 0.1 µM.

In the case of `CCc1nc2c(N)ncc(-c3ccc(N4CCC(N5CCN(CC(F)F)CC5)CC4)c(OC)c3)c2nc1NC1CCOCC1` [Compound 321], the IC50 in assay [1] was not above 0.01 µM; in assay [2], 0.01 to 0.1 µM.

With `CCc1nc2c(N)ncc(-c3ccc(N4CCC(N5CCN(C)CC5)CC4C)c(OC)c3)c2nc1NC1CCOCC1` (stereo not shown) [Compound 322], the IC50 in assay [1] is not above 0.01 µM; in assay [2] it was 0.01 to 0.1 µM.

In the case of `CCc1nc2c(N)ncc(-c3ccc(N4CCC(N5CC[C@@H](NC)C5)CC4)c(OC)c3)c2nc1NC1CCOCC1` [Compound 323], the IC50 is not above 0.01 µM in assay [1] and 0.01 to 0.1 µM in assay [2].

For `CCc1nc2c(N)ncc(-c3ccc(N4CCC(N5CC[C@H](NC)C5)CC4)c(OC)c3)c2nc1NC1CCOCC1` [Compound 324], the IC50 in assay [1] is not above 0.01 µM; in assay [2], 0.01 to 0.1 µM.

On to `CCc1nc2c(N)ncc(-c3ccc(N4CCC(N5CCN(CC)CC5)CC4)c(OC)c3)c2nc1N[C@H]1CCOC1` [Compound 325], for which the IC50 in assay [1] was not above 0.01 µM; in assay [2] it was 0.01 to 0.1 µM.

`CCc1nc2c(N)ncc(-c3ccc(N4CCC(N5CCN(CCC#N)CC5)CC4)c(OC)c3)c2nc1NC1CCOCC1` [Compound 326]: the IC50 in assay [1] and in assay [2] was 0.01 to 0.1 µM in each case.
